What was measured:
[1] = molecular target: T1, Vasopressin V1a receptor (Homo sapiens, UniProt P37288); assay: Displacement of [3H]-AVP from human V1A receptor expressed in CHO cell membranes
Target sequence in this assay (P37288 whole entry): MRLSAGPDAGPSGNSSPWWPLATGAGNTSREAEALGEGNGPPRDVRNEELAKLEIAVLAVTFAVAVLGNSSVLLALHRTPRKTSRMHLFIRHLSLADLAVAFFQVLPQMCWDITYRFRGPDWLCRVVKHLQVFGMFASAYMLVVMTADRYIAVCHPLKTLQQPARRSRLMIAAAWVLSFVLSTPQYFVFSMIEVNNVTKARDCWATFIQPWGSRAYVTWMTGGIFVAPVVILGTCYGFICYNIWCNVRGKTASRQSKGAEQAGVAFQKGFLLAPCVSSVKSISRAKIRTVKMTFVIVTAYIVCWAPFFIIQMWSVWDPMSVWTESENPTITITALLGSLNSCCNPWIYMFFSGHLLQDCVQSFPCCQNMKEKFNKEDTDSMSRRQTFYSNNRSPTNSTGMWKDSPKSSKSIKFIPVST

[2] = molecular target: T2, Vasopressin V1b receptor (Homo sapiens, UniProt P47901); assay: Displacement of [3H]-AVP from human V1B receptor expressed in CHO cell membranes
T2 sequence (P47901 whole entry): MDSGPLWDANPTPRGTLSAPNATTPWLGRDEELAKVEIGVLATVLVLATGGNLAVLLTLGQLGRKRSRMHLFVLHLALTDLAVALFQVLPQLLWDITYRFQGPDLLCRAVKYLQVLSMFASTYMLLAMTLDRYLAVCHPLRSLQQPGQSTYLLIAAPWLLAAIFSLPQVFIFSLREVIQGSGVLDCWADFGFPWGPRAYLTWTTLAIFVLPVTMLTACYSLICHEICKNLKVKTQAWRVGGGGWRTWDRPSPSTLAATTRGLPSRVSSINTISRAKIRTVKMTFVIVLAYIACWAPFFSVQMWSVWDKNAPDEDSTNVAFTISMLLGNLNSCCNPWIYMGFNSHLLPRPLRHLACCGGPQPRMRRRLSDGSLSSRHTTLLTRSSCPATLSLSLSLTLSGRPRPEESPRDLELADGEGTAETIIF

[3] = molecular target: T3, Vasopressin V2 receptor (Homo sapiens, UniProt P30518); assay: Displacement of [3H]-AVP from human V2 receptor expressed in CHO cell membranes
T3 sequence (P30518 whole entry): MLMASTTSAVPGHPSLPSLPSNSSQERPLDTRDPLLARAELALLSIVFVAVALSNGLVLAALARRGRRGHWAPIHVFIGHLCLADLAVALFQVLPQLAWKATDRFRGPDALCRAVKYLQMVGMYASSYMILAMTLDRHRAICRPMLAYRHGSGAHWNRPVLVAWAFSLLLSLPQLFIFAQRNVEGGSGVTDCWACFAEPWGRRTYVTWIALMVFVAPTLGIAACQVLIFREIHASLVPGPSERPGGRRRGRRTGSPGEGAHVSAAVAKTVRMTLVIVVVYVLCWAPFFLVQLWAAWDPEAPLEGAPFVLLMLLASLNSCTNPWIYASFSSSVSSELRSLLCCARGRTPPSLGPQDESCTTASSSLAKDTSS

[4] = molecular target: T4, Oxytocin receptor (Homo sapiens, UniProt P30559); assay: Displacement of [3H]-oxytocin from OTR receptor in human USMC cell membranes
T4 sequence (P30559 whole entry): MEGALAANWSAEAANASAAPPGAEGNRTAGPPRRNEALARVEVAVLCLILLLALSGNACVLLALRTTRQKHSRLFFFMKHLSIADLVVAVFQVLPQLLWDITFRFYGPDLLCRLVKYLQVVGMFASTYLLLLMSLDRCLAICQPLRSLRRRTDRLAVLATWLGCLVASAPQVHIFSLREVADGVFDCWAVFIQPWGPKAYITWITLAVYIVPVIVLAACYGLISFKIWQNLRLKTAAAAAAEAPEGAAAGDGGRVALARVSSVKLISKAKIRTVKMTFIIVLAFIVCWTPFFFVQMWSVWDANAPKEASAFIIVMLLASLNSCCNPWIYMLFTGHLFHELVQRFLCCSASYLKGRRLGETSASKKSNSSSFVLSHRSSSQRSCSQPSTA

[5] = molecular target: T1, Vasopressin V1a receptor; assay: Antagonist activity at V1A receptor (unknown origin); format: functional
Target sequence in this assay (P37288 whole entry): as the sequence (P37288 whole entry) above

[6] = molecular target: T3, Vasopressin V2 receptor; assay: Antagonist activity at V2 receptor (unknown origin); format: functional
[7] = molecular target: T4, Oxytocin receptor; assay: Antagonist activity at OXR receptor (unknown origin); format: functional
[8] = molecular target: T5, Oxytocin receptor (Homo sapiens) (UniProt P30559); assay: Agonist activity at human OTR receptor expressed in CHO cells assessed as increase in myo-inositol 1-phosphate accumulation at 1 uM by IP-One assay relative to OT; format: functional, cell-based
T5 sequence (whole entry): T4 sequence (P30559 whole entry)

[9] = molecular target: T1, Vasopressin V1a receptor; assay: Agonist activity at human V1A receptor expressed in CHO cells assessed as increase in myo-inositol 1-phosphate accumulation at 1 uM by IP-One assay relative to AVP; format: functional, cell-based
Target sequence in this assay (P37288 whole entry, looked up): as the sequence (P37288 whole entry) above

[10] = molecular target: T1, Vasopressin V1a receptor; assay: Displacement of [3H]-AVP from human V1A receptor expressed in CHO cell membranes by radioligand binding assay
Target sequence in this assay (P37288 whole entry): as above

[11] = molecular target: T3, Vasopressin V2 receptor; assay: Displacement of [3H]-AVP from human V2 receptor expressed in CHO cell membranes by radioligand binding assay
[12] = molecular target: T4, Oxytocin receptor; assay: Displacement of [3H]-AVP from human OXR receptor expressed in CHO cell membranes by radioligand binding assay
[13] = molecular target: T3, Vasopressin V2 receptor; assay: Antagonist activity at human V2 receptor expressed in CHO cells assessed as inhibition of AVP-induced cAMP accumulation by cAMP dynamic 2 assay; format: functional, cell-based
[14] = molecular target: T5, Oxytocin receptor (Homo sapiens); assay: Antagonist activity at human OTR receptor expressed in CHO cells assessed as inhibition of OT-induced myo-inositol 1-phosphate accumulation by IP-One assay; format: functional, cell-based
[15] = molecular target: T1, Vasopressin V1a receptor; assay: Displacement of DY647 from SNAP-tagged V1A receptor (unknown origin) expressed in HEK293 cells by TR-FRET assay; format: cell-based
Target sequence in this assay (P37288 whole entry): as above

[16] = molecular target: T1, Vasopressin V1a receptor; assay: Agonist activity at human V1A receptor expressed in HEK cells assessed as increase in intracellular calcium flux at 1 uM incubated for 45 mins by Indo1-AM dye based fluorescence assay relative to AVP; format: functional, cell-based
Target sequence in this assay (P37288 whole entry, looked up): as the sequence (P37288 whole entry) above

[17] = molecular target: T1, Vasopressin V1a receptor; assay: Antagonist activity at human V1A receptor expressed in HEK cells assessed as inhibition of AVP-induced intracellular calcium flux incubated for 45 mins by Indo1-AM dye based fluorescence assay relative to AVP; format: functional, cell-based
Target sequence in this assay (P37288 whole entry): as above

[18] = molecular target: T4, Oxytocin receptor; assay: Displacement of DY647 from SNAP-tagged OTR receptor (unknown origin) expressed in HEK293 cells by TR-FRET assay; format: cell-based
[19] = molecular target: T4, Oxytocin receptor; assay: Agonist activity at human OTR expressed in HEK cells assessed as increase in intracellular calcium flux incubated for 45 mins by Indo1-AM dye based fluorescence assay; format: functional, cell-based
[20] = molecular target: T5, Oxytocin receptor (Homo sapiens); assay: Agonist activity at human OTR expressed in HEK cells assessed as increase in intracellular calcium flux incubated for 45 mins by Indo1-AM dye based fluorescence assay relative to OT; format: functional, cell-based
[21] = molecular target: T5, Oxytocin receptor (Homo sapiens); assay: Antagonist activity at human OTR expressed in HEK cells assessed as inhibition of OT-induced intracellular calcium flux at 1 uM incubated for 45 mins by Indo1-AM dye based fluorescence assay relative to OT; format: functional, cell-based
[22] = molecular target: T5, Oxytocin receptor (Homo sapiens); assay: Agonist activity at human OTR receptor expressed in CHO cells co-expressing NFAT-luciferase incubated for 5 hrs by luciferase reporter gene assay relative to OT; format: functional, cell-based
[23] = molecular target: T3, Vasopressin V2 receptor; assay: Displacement of DY647 from SNAP-tagged V2 receptor (unknown origin) expressed in HEK293 cells by TR-FRET assay; format: cell-based
[24] = molecular target: T5, Oxytocin receptor (Homo sapiens); assay: Agonist activity at human OTR expressed in HEK cells assessed as increase in intracellular calcium flux at 1 uM incubated for 45 mins by Indo1-AM dye based fluorescence assay relative to OT; format: functional, cell-based
[25] = molecular target: T4, Oxytocin receptor; assay: Antagonist activity at human OTR expressed in HEK cells assessed as inhibition of OT-induced intracellular calcium flux incubated for 45 mins by Indo1-AM dye based fluorescence assay; format: functional, cell-based
[26] = molecular target: T3, Vasopressin V2 receptor; assay: Agonist activity at human V2 receptor expressed in CHO cells assessed as increase in cAMP accumulation by cAMP dynamic 2 assay; format: functional, cell-based
[27] = molecular target: T1, Vasopressin V1a receptor; assay: Antagonist activity at human V1A receptor expressed in CHO cells assessed as inhibition of AVP-induced myo-inositol 1-phosphate accumulation by IP-One assay; format: functional, cell-based
Target sequence in this assay (P37288 whole entry, looked up): as the sequence (P37288 whole entry) above

[28] = organism: Homo sapiens; assay: Selectivity for human V1a receptor over human V2 receptor
[29] = organism: Homo sapiens; assay: Selectivity for human OTR receptor over human V2 receptor

With Cc1occc1C(=O)Nc1ccc(C(=O)N2CCC(F)(F)/C(=C\C(=O)N3CCC(N4CCCCC4)CC3)c3ccccc32)cc1 the Ki [1] was 0.3 nM, the Ki [2] was 25500 nM and the Ki [3] was 381 nM. The Ki [4] was 71 nM.

For O=C(Nc1ccc(C(=O)N2CCCCc3ccccc32)cc1)c1ccccc1-c1ccccc1, the IC50 [5] was 2.74 nM, the IC50 [6] was 0.57 nM and the IC50 [7] was 109 nM. The Emax [8] was < 10% and the Emax [9] was < 10%.

With O=C(c1ccc(-c2ccccc2)cc1)N1CCCCc2ccccc21 the Ki [10] was 2.28 nM, the Ki [11] was 78 nM and the Ki [12] was 10.4 nM. For the same molecule, the Kinact [13] was 132 nM, the Kinact [14] was 42 nM and the Emax [8] was < 10%. For the same molecule, the Emax [9] was < 10%.

For Cc1cc(C(=O)N2Cc3cnn(C)c3Nc3ccccc32)ccc1CNC(=O)N1CCC[C@H]1C(=S)N1CCCN(C)CC1, the Ki [15] was 196 nM, the Emax [16] was 5 to 10% and the IC50 [17] was 8 nM. It also gave a Ki [18] of 141 nM, an EC50 [19] of 28 nM and an Emax [20] of 84%. The inhibition [21] was 5 to 10% and the Emax [22] was 100%.

In the case of Cc1cc(C(=O)N2Cc3cnn(C)c3Nc3ccccc32)ccc1CNC(=O)NCC(=O)N(C)C, the Ki [15] is reported as > 1000 nM, the Emax [16] is reported as 5 to 10% and the IC50 [17] is reported as 50 nM. The Ki [23] was > 1000 nM, the Ki [18] was 417 nM and the Emax [24] was 5 to 10%. For the same molecule, the IC50 [25] was 775 nM.

For Cc1ccn(-c2ccc(C(=O)N3CCCCc4ccccc43)cc2)n1, the Ki [10] was 34 nM, the Ki [11] was 282 nM and the Ki [12] was 84 nM. The Kact [26] was 13 nM, the Kinact [27] was 48 nM and the Kinact [14] was 112 nM. The Emax [8] was < 10%, the Emax [9] was < 10% and the Selectivity ratio [28] was 0.12. It also gave a Selectivity ratio [29] of 0.3.

With COC(=O)CNC(=O)NCc1ccc(C(=O)N2Cc3cnn(C)c3Nc3ccccc32)cc1C the Ki [15] was > 1000 nM, the Emax [16] was 5 to 10% and the IC50 [17] was 110 nM. The Ki [23] was > 1000 nM, the Ki [18] was 385 nM and the Emax [24] was 5 to 10%. For the same molecule, the IC50 [25] was > 1000 nM.

In the case of Cc1cc(C(=O)N2Cc3cnn(C)c3Nc3ccccc32)ccc1CNC(=O)N1CCC[C@H]1C(=O)N(C)C, the Ki [15] is reported as > 1000 nM, the Emax [16] is reported as 5 to 10% and the IC50 [17] is reported as 95 nM. The Ki [23] was > 1000 nM, the Ki [18] was > 1000 nM and the EC50 [19] was 300 nM. The Emax [20] was 34% and the inhibition [21] was 5 to 10%.

Reference: ChEMBL document CHEMBL4196200 (J Med Chem, 2018)
